The values that follow come from patent US9006228B2 (Merck Sharp & Dohme Corp., priority 2011, dated 2015).

The test addresses T1, human GPR119 (Homo sapiens, UniProt Q8TDV5).
T1 sequence (Q8TDV5 1-308 limits assumed): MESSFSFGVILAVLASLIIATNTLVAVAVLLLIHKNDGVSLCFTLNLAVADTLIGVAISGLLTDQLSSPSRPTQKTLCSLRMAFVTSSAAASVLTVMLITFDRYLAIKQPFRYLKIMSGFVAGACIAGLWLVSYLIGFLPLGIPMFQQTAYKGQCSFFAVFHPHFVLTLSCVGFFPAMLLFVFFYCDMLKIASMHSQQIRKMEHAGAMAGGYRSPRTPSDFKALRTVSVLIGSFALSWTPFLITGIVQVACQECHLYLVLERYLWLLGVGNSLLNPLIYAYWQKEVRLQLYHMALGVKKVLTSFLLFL
Nature of the test: Measurement of GPR119 signaling (cAMP assay; LANCE kit or HTRF) in HEK293 cells stably transfected with human GPR119. In kind it is cell-based. The following applies: agonist-stimulated cAMP in HEK293 cells expressing human GPR119. On the procedure:
Measurement of GPR119 Signaling Using LANCE 384-Well cAMP Kit
The adenylate cyclase assay was constructed following the LANCE™ cAMP Kit (Perkin Elmer, AD0264) instructions. […] The reaction was stopped by incubating with the supplied detection buffer containing the europium chelate of the Eu-SA/Biotin-cAMP tracer for 3 hours. The assay was performed in duplicate in a 384 well plate for duplicate plates. Fluorescence at 665 nm was measured using a PHERAstar instrument. Basal activity was determined using a DMSO control and maximum response was defined as cAMP stimulation produced by an internal agonist control. Standard cAMP concentrations were assayed concurrently for conversion of fluorescence signal to cAMP level. The data was analyzed using 4-parameter curve fit in Microsoft Excel.
Measurement of GPR119 Signaling Using a Cyclic AMP (cAMP) Homogenous Time Resolved Fluorescence (HTRF) Assay
Chinese hamster ovary (CHO) cell lines stably transfected with the permissive guanine nucleotide binding protein alpha 15 (Gα15) and murine GPR119 were maintained in DMEM media containing FBS, penicillin-streptomycin, puromycin, and G418 (geneticin). […] Agonist activation of the GPR119 receptor was measured in receptor transfected cells described above, treated with compounds of this invention, using a commercial homogenous time resolved fluorescence (HTRF) kit for measurement of cAMP (CisBio, Bedford, Mass.). The assay was performed in 96-well half-volume plates (murine) or 384-well plates (human) following the manufacturers instructions. Briefly, suspended cells were incubated with a dose titration of test compound at RT for 60 min, lysed, and incubated with HTRF reagents for an additional 60 min. The plate was read using an Envision multilabel reader (Perkin Elmer) adjusted to read time resolved fluorescence and the cAMP concentrations were extrapolated from a cAMP calibration curve. […] The concentration of test compound required to stimulate a half-maximal response (EC50), and efficacy as compared to an internal agonist control, was determined from a sigmoidal 4-parameter curve fit of the resulting plot of normalized activity versus compound concentration.
Turning to `CS(=O)(=O)c1c(F)cc(COC[C@@H]2C[C@@H]2C2CCN(c3ncc(C4CC4)cn3)CC2)cc1F` [Example 48, 5-cyclopropyl-2-{4-[(1R,2R)-2-({[3,5-difluoro-4-(methylsulfonyl)benzyl]oxy}methyl)cyclopropyl]piperidin-1-yl}pyrimidine], the midpoint of the response, the EC50, lay at 0.6 nM.
The value for `CC1(OC(=O)N2CCC([C@H]3C[C@H]3COCc3cc(F)c(S(C)(=O)=O)c(F)c3)CC2)CC1` [Example 49, 1-methylcyclopropyl 4-[(1R,2R)-2-({[3,5-difluoro-4-(methylsulfonyl)benzyl]oxy}methyl)cyclopropyl] piperidine-1-carboxylate] was 11.7 nM; that for `CC(C)OC(=O)N1CCC([C@H]2C[C@H]2COCc2cc(F)c(S(C)(=O)=O)c(F)c2)CC1` [Example 50, isopropyl 4-[(1R,2R)-2-({[3,5-difluoro-4-(methylsulfonyl)benzyl]oxy}methyl)cyclopropyl] piperidine-1-carboxylate] was 20.5 nM.
The same measure for `O=C(c1ccc(COC[C@@H]2C[C@@H]2C2CCN(c3ncc(Cl)cn3)CC2)cc1F)C1CC1` [Example 51]: 3.7 nM; for `CC(C)(C)OC(=O)N1CCC([C@H]2C[C@H]2COCc2cc(F)c(C(=O)C3CC3)c(F)c2)CC1` [Example 52, tert-butyl 4-[(1R,2R)-2-({[4-(cyclopropylcarbonyl)-3,5-difluorobenzyl]oxy}methyl)cyclopropyl]piperidine-1-carboxylate]: 2.4 nM; for `O=C(c1c(F)cc(COC[C@@H]2C[C@@H]2C2CCN(c3ncc(Cl)cn3)CC2)cc1F)C1CC1` [Example 53]: 1 nM.
The value for `CCc1cnc(N2CCC([C@H]3C[C@H]3COCc3ccc(-c4ncco4)cc3)CC2)nc1` [Example 54, 5-ethyl-2-{4-[(1R,2R)-2-({[4-(1,3-oxazol-2-yl)benzyl]oxy}methyl)cyclopropyl]piperidin-1-yl}pyrimidine] was 12 nM; that for `CCc1cnc(N2CCC([C@H]3C[C@H]3COCc3ccc(S(=O)(=O)C4CC4)cc3)CC2)nc1` [Example 56, 2-{4-[(1R,2R)-2-({[4-(cyclopropylsulfonyl)benzyl]oxy}methyl)cyclopropyl]piperidin-1-yl}-5-ethylpyrimidine] was 1.2 nM; that for `CCc1cnc(N2CCC([C@H]3C[C@H]3COCc3ccc(S(=O)(=O)CC)cc3)CC2)nc1` [Example 57, 5-ethyl-2-{4-[(1R,2R)-2-({[4-(ethylsulfonyl)benzyl]oxy}methyl)cyclopropyl]piperidin-1-yl}pyrimidine] was 0.3 nM.
In turn, `CCc1cnc(N2CCC([C@H]3C[C@H]3COCc3ccc(C[C@@H](C)O)cc3)CC2)nc1` [Example 58, (2R)-1-{4-[({(1R,2R)-2-[1-(5-ethylpyrimidin-2-yl)piperidin-4-yl]cyclopropyl}methoxy)methyl]phenyl}propan-2-ol] came in with an EC50 of 11 nM.
`CCc1cnc(N2CCC([C@H]3C[C@H]3COCc3ccc(C[C@H](C)O)cc3)CC2)nc1` [Example 59, (2S)-1-{4-[({(1R,2R)-2-[1-(5-ethylpyrimidin-2-yl)piperidin-4-yl]cyclopropyl}methoxy)methyl]phenyl}propan-2-ol] gave an EC50 of 1.6 nM.
The value for `CCc1cnc(N2CCC([C@H]3C[C@H]3COCc3ccc(CCO)cc3)CC2)nc1` [Example 60, 2-{4-[({(1R,2R)-2-[1-(5-ethylpyrimidin-2-yl)piperidin-4-yl]cyclopropyl}methoxy)methyl]phenyl}ethanol] was 2.5 nM; that for `CCc1cnc(N2CCC([C@H]3C[C@H]3COCc3ccc(-n4cnnn4)cc3)CC2)nc1` [Example 61, 5-ethyl-2-{4-[(1R,2R)-2-({[4-(1H-tetrazol-1-yl)benzyl]oxy}methyl)cyclopropyl]piperidin-1-yl}pyrimidine] was 0.07 nM; that for `CCc1cnc(N2CCC([C@H]3C[C@H]3COCc3ccc(-n4ccnn4)cc3)CC2)nc1` [Example 62, 5-ethyl-2-{4-[(1R,2R)-2-({[4-(1H-1,2,3-triazol-1-yl)benzyl]oxy}methyl)cyclopropyl]piperidin-1-yl}pyrimidine] was 0.3 nM.
The value for `CCc1cnc(N2CCC([C@H]3C[C@H]3COCc3ccc(-c4ncno4)cc3)CC2)nc1` [Example 63, 5-ethyl-2-{4-[(1R,2R)-2-({[4-(1,2,4-oxadiazol-5-yl)benzyl]oxy}methyl)cyclopropyl]piperidin-1-yl}pyrimidine] was 5.5 nM; that for `CCc1cnc(N2CCC([C@H]3C[C@H]3COCc3ccc(S(=O)(=O)CC[C@H](C)O)cc3)CC2)nc1` [Example 64] was 0.6 nM; that for `CCc1cnc(N2CCC([C@H]3C[C@H]3[C@H](COC)OCc3ccc(S(C)(=O)=O)cc3)CC2)nc1` [Example 65] was 850 nM.
The value for `CCc1cnc(N2CCC([C@H]3C[C@H]3[C@@H](COC)OCc3ccc(S(C)(=O)=O)cc3)CC2)nc1` [Example 66] was 0.19 nM; that for `CCc1cnc(N2CCC([C@H]3C[C@H]3[C@@H](COC)OCc3ccc(S(=O)(=O)CC)cc3)CC2)nc1` [Example 67] was 0.16 nM; that for `CS(=O)(=O)c1ccc(COC[C@@H]2C[C@@H]2C2CCN(c3ncc(Cl)cn3)CC2)c(F)c1` [Example 68] was 0.18 nM.
With `CS(=O)(=O)c1ccc(COC[C@@H]2C[C@@H]2C2CCN(c3ncc(F)cn3)CC2)c(F)c1` [Example 69], the EC50 was found to be 2.4 nM.
Consider `CS(=O)(=O)c1ccc(COC[C@@H]2C[C@@H]2C2CCN(c3ncc(Br)cn3)CC2)c(F)c1` [Example 70], for which the EC50 was 0.19 nM.
The value for `CS(=O)(=O)c1ccc(COC[C@@H]2C[C@@H]2C2CCN(c3ncc(C=O)cn3)CC2)c(F)c1` [Example 71, 2-{4-[(1R,2R)-2-({[2-fluoro-4-(methylsulfonyl)benzyl]oxy}methyl)cyclopropyl]piperidin-1-yl} pyrimidine-5-carbaldehyde] was 13.6 nM.
The value for `CS(=O)(=O)c1ccc(COC[C@@H]2C[C@@H]2C2CCN(c3ncc(C#N)cn3)CC2)c(F)c1` [Example 72] was 9.3 nM.
The value for `Cc1cnc(N2CCC([C@H]3C[C@H]3COCc3ccc(S(C)(=O)=O)cc3F)CC2)nc1` [Example 74] was 4.3 nM.
`CC(C)(O)c1cnc(N2CCC([C@H]3C[C@H]3COCc3ccc(S(C)(=O)=O)cc3F)CC2)nc1` [Example 75, 2-(2-{4-[(1R,2R)-2-({[2-fluoro-4-(methylsulfonyl)benzyl]oxy}methyl)cyclopropyl]piperidin-1-yl}pyrimidin-5-yl)propan-2-ol] registered an EC50 of 25 nM.
In turn, `CC(C)(O)c1cnc(N2CCC([C@H]3C[C@H]3COCc3ccc(S(C)(=O)=O)cc3F)CC2)nc1` [Example 76] showed an EC50 of 15 nM.
Turning to `COCc1cnc(N2CCC([C@H]3C[C@H]3COCc3ccc(S(C)(=O)=O)cc3F)CC2)nc1` [Example 77, 2-{4-[(1R,2R)-2-({[2-fluoro-4-(methylsulfonyl)benzyl]oxy}methyl)cyclopropyl]piperidin-1-yl}-5-(methoxymethyl)pyrimidine], a half-maximal response (EC50) required 1.6 nM.
On to `CC(C)c1noc(N2CCC([C@H]3C[C@H]3COCc3ccc(S(C)(=O)=O)cc3F)CC2)n1` [Example 78, 4-[(1R,2R)-2-({[2-fluoro-4-(methylsulfonyl)benzyl]oxy}methyl)cyclopropyl 1]-1-(3-isopropyl-1,2,4-oxadiazol-5-yl)piperidine], for which the EC50 was 4.9 nM.
The value for `CC(C)(C)OC(=O)N1CCC([C@H]2C[C@H]2COCc2ccc(S(=O)(=O)CCO)cc2F)CC1` [Example 79, tert-butyl 4-{(1R,2R)-2-[({2-fluoro-4-[(2-hydroxyethyl)sulfonyl]benzyl}oxy)methyl]cyclopropyl}piperidine-1-carboxylate] was 7.1 nM.
As for `O=S(=O)(CCO)c1ccc(COC[C@@H]2C[C@@H]2C2CCN(c3ncc(Cl)cn3)CC2)c(F)c1` [Example 80], a half-maximal response (EC50) required 2.3 nM.
The same measure for `O=S(=O)(CCO)c1ccc(COC[C@@H]2C[C@@H]2C2CCN(c3ncc(Br)cn3)CC2)c(F)c1` [Example 81]: 1.7 nM; for `Cc1cnc(N2CCC([C@H]3C[C@H]3COCc3ccc(S(=O)(=O)CCO)cc3F)CC2)nc1` [Example 82]: 11.7 nM.

For orientation: EC50 means the concentration at which the effect is half-maximal.
